Experiments:
[1] = biological target: T1, Aurora-A (h) (Homo sapiens, UniProt O14965); assay: Aurora-A (h) kinase assay; assay type: biochemical
T1 construct: purchased Millipore UK Ltd (contract assay service)
T1 sequence (O14965 1-403): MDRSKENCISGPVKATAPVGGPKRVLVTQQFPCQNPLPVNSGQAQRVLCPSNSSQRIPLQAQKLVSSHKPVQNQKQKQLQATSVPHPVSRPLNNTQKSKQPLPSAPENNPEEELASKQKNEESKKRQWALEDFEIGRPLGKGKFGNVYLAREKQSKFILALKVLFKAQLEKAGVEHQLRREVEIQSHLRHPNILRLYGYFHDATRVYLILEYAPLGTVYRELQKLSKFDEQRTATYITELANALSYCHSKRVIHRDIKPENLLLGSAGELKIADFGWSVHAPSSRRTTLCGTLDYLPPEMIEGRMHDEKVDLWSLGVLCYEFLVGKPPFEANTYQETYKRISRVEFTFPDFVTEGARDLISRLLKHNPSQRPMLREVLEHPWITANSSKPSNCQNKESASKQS
Procedure: (§1) Kinase assays can be performed by measurement of incorporation of γ-33P ATP into immobilized myelin basic protein (MBP). High binding white 384 well plates (Greiner) are coated with MBP (Sigma #M-1891) by incubation of 60 μL/well of 20 μg/mL MBP in Tris-buffered saline (TBS; 50 mM Tris pH 8.0, 138 mM NaCl, 2.7 mM KCl) for 24 h at 4° C. Plates are washed 3× with 100 μL TBS. Kinase reactions are carried out in a total volume of 34 μL in kinase buffer (according to the need to make, for example, 5 mM Hepes pH 7.6, 15 mM NaCl, 0.01% bovine gamma globulin (Sigma #I-5506), 10 mM MgCl2, 1 mM DTT, 0.02% TritonX-100). Compound dilutions are performed in DMSO and added to assay wells to a final DMSO concentration of 1%. Each data point is measured in duplicate, and at least two duplicate assays are performed for each individual compound determination. Enzyme is added to final concentrations of 10 nM or 20 nM, for example. A mixture of unlabeled ATP and γ-33P ATP is added to start the reaction (2×10^6 cpm of γ-33P ATP per well (3000 Ci/mmole) and 10 μM unlabeled ATP, typically. The reactions are carried out for 1 h at room temperature with shaking Plates are washed 7× with TBS, followed by the addition of 50 μL/well scintillation fluid (Wallac). Plates are read using a Wallac Trilux counter. This is only one format of such assays; various other formats are possible, as known to one skilled in the art.
The above assay procedure can be used to determine the IC50 for inhibition and/or the inhibition constant, Ki. The IC50 is defined as the concentration of compound required to reduce the enzyme activity by 50% under the condition of the assay. The IC50 value is estimated by preparing a 10 point curve using a ½ log dilution series (for example, a typical curve may be prepared using the following compound concentrations: 3 μM, 1 μM, 0.3 μM, 0.1 μM, 0.03 μM, 0.01 μM, 0.003 μM, 0.001 μM, 0.0003 μM and 0 μM).
Aurora-A (h) is incubated with 8 mM MOPS pH 7.0, 0.2 mM EDTA, 200 μM LRRASLG (Kemptide), 10 mM MgAcetate and [γ-^33P-ATP] […]

[2] = biological target: T2, TYK2 (h) (Homo sapiens, UniProt P29597); assay: TYK2 (h) kinase assay; assay type: biochemical
T2 construct: purchased Millipore UK Ltd (contract assay service)
Procedure: as §1, with “Enzyme is added to final concentrations of 10 nM or 20 nM, for example.” left out, “art. […]” for “art.”

T2 sequence (P29597 whole entry): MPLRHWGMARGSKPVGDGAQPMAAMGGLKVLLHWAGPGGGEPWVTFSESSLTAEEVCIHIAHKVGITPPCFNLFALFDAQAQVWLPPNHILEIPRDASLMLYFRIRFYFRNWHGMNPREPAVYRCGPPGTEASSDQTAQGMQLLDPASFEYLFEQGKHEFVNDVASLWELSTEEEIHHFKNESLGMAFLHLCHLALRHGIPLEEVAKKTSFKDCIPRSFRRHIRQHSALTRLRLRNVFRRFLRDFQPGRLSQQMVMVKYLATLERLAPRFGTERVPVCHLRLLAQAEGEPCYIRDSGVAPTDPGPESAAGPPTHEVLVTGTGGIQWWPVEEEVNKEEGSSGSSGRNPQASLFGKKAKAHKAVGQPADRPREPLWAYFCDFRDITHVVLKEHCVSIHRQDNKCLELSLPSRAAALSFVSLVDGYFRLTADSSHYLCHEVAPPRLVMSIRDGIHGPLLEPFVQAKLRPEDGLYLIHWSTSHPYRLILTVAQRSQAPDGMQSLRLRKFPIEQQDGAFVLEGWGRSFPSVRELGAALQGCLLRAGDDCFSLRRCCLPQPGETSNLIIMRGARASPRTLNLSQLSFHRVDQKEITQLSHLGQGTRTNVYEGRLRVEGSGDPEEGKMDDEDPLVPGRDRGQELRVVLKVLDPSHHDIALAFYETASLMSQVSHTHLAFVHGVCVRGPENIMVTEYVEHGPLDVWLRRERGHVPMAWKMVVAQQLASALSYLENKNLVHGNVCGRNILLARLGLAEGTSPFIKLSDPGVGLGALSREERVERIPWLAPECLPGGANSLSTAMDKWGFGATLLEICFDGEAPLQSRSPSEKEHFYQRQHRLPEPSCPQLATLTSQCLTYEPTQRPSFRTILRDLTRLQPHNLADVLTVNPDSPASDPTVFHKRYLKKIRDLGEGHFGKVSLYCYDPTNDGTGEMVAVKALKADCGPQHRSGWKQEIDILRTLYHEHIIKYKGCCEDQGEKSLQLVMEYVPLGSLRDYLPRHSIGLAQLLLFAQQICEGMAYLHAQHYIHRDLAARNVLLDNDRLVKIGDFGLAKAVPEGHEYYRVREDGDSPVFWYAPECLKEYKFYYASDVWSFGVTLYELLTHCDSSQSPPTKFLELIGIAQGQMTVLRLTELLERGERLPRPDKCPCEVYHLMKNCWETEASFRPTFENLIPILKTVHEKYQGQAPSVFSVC

| Compound | IC50 [1] [nM] | IC50 [2] [nM] |
| --- | --- | --- |
| Cn1cc(Nc2ncc(Cl)c(NC3CCN(c4ccc(C#N)cn4)CC3)n2)cn1 [Ex. 1, 6-(4-((5-chloro-2-((1-methyl-1H-pyrazol-4-yl)amino)pyrimidin-4-yl)amino)piperidin-1-yl)nicotinonitrile] | 68 | – |
| CN(c1nc(Nc2cnn(C)c2)ncc1Cl)C1CCN(c2ccc(C#N)cn2)CC1 [Ex. 5, 6-(4-((5-chloro-2-((1-methyl-1H-pyrazol-4-yl)amino)pyrimidin-4-yl) (methyl)amino)piperidin-1-yl)nicotinonitrile] | 66 | 22 |
| Cc1c2ccc(Nc3ncc(Cl)c(NC4CCN(c5ccc(C#N)cn5)CC4)n3)cc2nn1C [Ex. 4] | 503 | 2 |

Reference: US10059689B2, “Substituted heteroaryl compounds and methods of use” (Sunshine Lake Pharma Co., Ltd., priority 2014, dated 2018)
